Data from ChEMBL document CHEMBL1201862, “PubChem BioAssay data set” (2004).
“And” between values parts separate entries of the source, which are not always exact repeats. Equal entries are not always repeated.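 Five concentrations, 48 hours, 96-well plates. GI50 marks 50% less growth.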 The source made the active and inactive calls. Cut-off read from the data, not from the text of the source: active = GI50 up to about 1.1 µM and inactive = higher.

What was measured:
Assay in all cases: NCI-60 cell line screen, 48 h
[1] = system: Hs-578T
[2] = system: PC-3
[3] = system: SW-620
[4] = system: NCI/ADR-RES
[5] = system: T47D
[6] = system: SNB-78
[7] = system: NCI-H460
[8] = system: HCT-15
[9] = system: UO-31
[10] = system: MDA-N
[11] = system: Malme-3M
[12] = system: SF-539
[13] = system: SK-MEL-28
[14] = system: EKVX
[15] = system: DLD-1
[16] = system: A498
[17] = system: UACC-62
[18] = system: NCI-H522
[19] = system: MDA-MB-435
[20] = system: HOP-18
[21] = system: BT-549
[22] = system: SNB-75
[23] = system: SK-MEL-2
[24] = system: DMS-273
[25] = system: DU-145
[26] = system: XF498
[27] = system: A549
[28] = system: MDA-MB-231
[29] = system: SK-MEL-5
[30] = system: SK-OV-3
[31] = system: HCT-116
[32] = system: MCF7
[33] = system: UACC-257
[34] = system: NCI-H23
[35] = system: SF-268
[36] = system: U-251
[37] = system: RXF 393
[38] = system: M14
[39] = system: RPMI-8226
[40] = system: OVCAR-5
[41] = system: KM12
[42] = system: SNB-19
[43] = system: OVCAR-4
[44] = system: COLO 205
[45] = system: LXFL 529
[46] = system: NCI-H226
[47] = system: LOX IMVI
[48] = system: SF-295
[49] = system: HL-60
[50] = system: OVCAR-8
[51] = system: CAKI-1
[52] = system: KM-20L2
[53] = system: M19-MEL
[54] = system: ACHN
[55] = system: HT-29
[56] = system: HOP-92
[57] = system: MOLT-4
[58] = system: HCC 2998
[59] = system: TK-10
[60] = system: CCRF-CEM
[61] = system: DMS-114
[62] = system: SN12C
[63] = system: IGROV-1
[64] = system: OVCAR-3
[65] = system: 786-0

`COC(C(=O)C(O)C(C)O)C1Cc2cc3cc(OC4CC(OC(C)=O)C(OC5CC(O)C(OC)C(C)O5)C(C)O4)cc(O)c3c(O)c2C(=O)C1OC1CC(OC2CC(OC3CC(C)(O)C(OC(=O)C(C)C)C(C)O3)C(O)C(C)O2)C(O)C(C)O1` (centres undefined) was tested, and the GI50 [1] was 0.0366 µM (active), the GI50 [2] was 0.201 µM (active) and the GI50 [3] was 15.6 nM (active) and 16.2 nM (active). The GI50 [4] was > 60.8 µM (inactive) and 51.9 µM (inactive), the GI50 [5] was 0.124 µM (active) and the GI50 [6] was 29.1 nM (active) and 24.1 nM (active). For the same molecule, the GI50 [7] was 9.82 nM (active) and < 10 nM (active), the GI50 [8] was 0.8 µM and 0.935 µM and the GI50 [9] was 938 nM (active) and 1.19 µM (inactive). For the same molecule, the GI50 [10] was 0.112 µM (active), the GI50 [11] was 23.8 nM (active) and < 13.5 nM (active) and the GI50 [12] was 16.1 nM (active) and < 10 nM (active). The GI50 [13] was < 10 nM (active) and 18.5 nM (active), the GI50 [14] was 10.2 nM (active) and < 10 nM (active) and the GI50 [15] was 44.3 nM (active) and 50.7 nM (active). For the same molecule, the GI50 [16] was 14.5 nM (active) and 8.43 nM (active), the GI50 [17] was < 10 nM (active) and 16.2 nM (active) and the GI50 [18] was 15.6 nM (active) and < 10 nM (active). The GI50 [19] was 0.0855 µM (active), the GI50 [20] was < 0.01 µM (active) and the GI50 [21] was 0.0202 µM (active). For the same molecule, the GI50 [22] was < 10 nM (active) and 19.1 nM (active), the GI50 [23] was 8.91 nM (active) and < 10 nM (active) and the GI50 [24] was < 10 nM (active) and 16.9 nM (active). For the same molecule, the GI50 [25] was 0.101 µM (active), the GI50 [26] was < 10 nM (active) and 8.95 nM (active) and the GI50 [27] was 10.9 nM (active) and 9.48 nM (active). The GI50 [28] was 0.0627 µM (active), the GI50 [29] was 20.1 nM (active) and < 17.8 nM (active) and the GI50 [30] was 210 nM (active) and 166 nM (active). For the same molecule, the GI50 [31] was < 18.4 nM (active) and < 10 nM (active), the GI50 [32] was < 10 nM (active) and 9.16 nM (active) and the GI50 [33] was 13.9 nM (active) and 26.3 nM (active). The GI50 [34] was < 17.8 nM (active) and 15.4 nM (active).
In the case of `COc1cc(/C=C\c2ccc(O)cc2)cc(OC)c1OC`, the GI50 [35] is reported as 0.555 µM (active), the GI50 [3] is reported as 2.65 µM (inactive) and the GI50 [36] is reported as 3.01 µM (inactive). For the same molecule, the GI50 [37] was 3.78 µM (inactive), the GI50 [38] was 22.2 µM (inactive) and the GI50 [39] was 0.402 µM (active). For the same molecule, the GI50 [40] was 98.9 µM (inactive), the GI50 [41] was 0.883 µM (active) and the GI50 [42] was 2.56 µM (inactive). The GI50 [6] was 3.96 µM (inactive), the GI50 [7] was 3.33 µM (inactive) and the GI50 [8] was 0.518 µM. For the same molecule, the GI50 [43] was 8.97 µM (inactive), the GI50 [44] was 5.57 µM (inactive) and the GI50 [45] was 4.18 µM (inactive). For the same molecule, the GI50 [46] was 22.3 µM (inactive), the GI50 [9] was 10.4 µM (inactive) and the GI50 [11] was 4.25 µM (inactive). For the same molecule, the GI50 [47] was 5.19 µM (inactive), the GI50 [48] was 2.47 µM (inactive) and the GI50 [12] was 2.82 µM (inactive). For the same molecule, the GI50 [13] was 1.91 µM (inactive), the GI50 [49] was 10.3 µM (inactive) and the GI50 [50] was 6.95 µM (inactive). The GI50 [14] was 9.93 µM (inactive), the GI50 [51] was 4.71 µM (inactive) and the GI50 [15] was > 100 µM (inactive). The GI50 [16] was 29.4 µM (inactive), the GI50 [52] was 33.3 µM (inactive) and the GI50 [17] was 3.37 µM (inactive). The GI50 [53] was 3.66 µM (inactive), the GI50 [18] was 2.88 µM (inactive) and the GI50 [20] was 22.3 µM (inactive). For the same molecule, the GI50 [54] was 8.17 µM (inactive), the GI50 [55] was 15.3 µM (inactive) and the GI50 [56] was 0.293 µM (active). For the same molecule, the GI50 [22] was 3.94 µM (inactive), the GI50 [23] was 2.64 µM (inactive) and the GI50 [24] was 350 nM (active). For the same molecule, the GI50 [57] was 4.24 µM (inactive), the GI50 [26] was 9.98 µM (inactive) and the GI50 [27] was 6.1 µM (inactive). The GI50 [58] was > 23.3 µM (inactive), the GI50 [59] was 18.2 µM (inactive) and the GI50 [60] was 3.72 µM (inactive). For the same molecule, the GI50 [29] was 1.18 µM (inactive), the GI50 [61] was 2.48 µM (inactive) and the GI50 [30] was 3.88 µM (inactive). The GI50 [31] was 3.96 µM (inactive), the GI50 [33] was 17.3 µM (inactive) and the GI50 [62] was 4.9 µM (inactive). For the same molecule, the GI50 [63] was 5.24 µM (inactive), the GI50 [64] was 2.32 µM (inactive) and the GI50 [65] was 8.59 µM (inactive). The GI50 [34] was 505 nM (active).
